Key:
DPPH radical scavenging = settings: compounds 0.1 mM, DPPH 0.1 mM in ethanol
Description: Antioxidant compounds able to neutralize DPPH radicals are increasingly recognized due to their capability of combating cancer, slowing down the aging process and regulating inflammation. As a result, they could potentially offer protection against rheumatoid arthritis and inflammation. […] In this experiment, NDGA and BHT were used as reference compounds and measurements took place at 30 min and 60 min. […] Such low scavenging activity of DPPH radicals is rather common for metal–NSAID complexes.
S1 Antioxidant activity assay
The antioxidant activity of the compound was evaluated via the ability to scavenge in vitro free radicals such as DPPH and ABTS and to reduce H2O2. All the experiments were carried out at least in triplicate and the standard deviation of absorbance was less than 10% […]
S1.1 Determination of the reducing activity of the radical DPPH
To an ethanolic solution of DPPH (0.1 mM) an equal volume solution of the compounds (0.1 mM) in ethanol was added. Absolute ethanol was also used as control solution. The absorbance at 517 nm was recorded at room temperature after 30 and 60 min in order to examine the possible existence of a potential time−dependence of the DPPH radical scavenging activity.[1] The DPPH−scavenging activity of the compounds was expressed as the percentage reduction of the absorbance values of the initial DPPH solution (DPPH%). NDGA and BHT were used as reference compounds. […]

[1] = molecular target: T1, human serum albumin (HSA) (Homo sapiens, UniProt P02768); test: Competitive albumin-fluorescence studies with warfarin and ibuprofen; assay type: binding; settings: for K(HSA, ibuprofen): in the presence of ibuprofen; for K(HSA, warfarin): in the presence of warfarin
T1 construct: purchased Sigma-Aldrich Co
Description: (§1) One of the primary functions of SAs is the transport of various compounds such as drugs, fatty acids and hormones. Albumins are composed of three domains, I, II and III, and each of them is subdivided into A and B subdomains that host compounds [90]. […] Site markers like warfarin and ibuprofen are used to identify in which albumin site a compound is bound, as these markers bind selectively to Sudlow’s sites I and II, respectively. The SA-binding site of the compounds was investigated by calculating the SA-binding constant for both HSA and BSA in the presence of ibuprofen or warfarin and comparing them with the values previously derived (in the absence of any marker).
(§2) Incremental addition of the compounds into a solution containing the SA (HSA or BSA) and the respective site marker (warfarin or ibuprofen) induced quenching of the initial fluorescence emission band (Figures S19–S22). The SA-binding constants for each compound in the presence of warfarin or ibuprofen were calculated with the Scatchard equation (Equation (S7)) and the corresponding plots (Figures S23–S26) and are compared with those calculated in the absence of any site marker to determine the preferable drug site. […]
(§3) From the Scatchard equation:
(§4) [Q] = nK − K Io (equation S7) where n is the number of binding sites per albumin and K is the albumin−binding constant (K, in M−1) is calculated from the slope in plots (ΔI/Io)/[compound] versus (ΔI/Io) and n is given by the ratio of y intercept to the slope.
(§5) S5.2 Competitive albumin−fluorescence studies with warfarin and ibuprofen The competitive studies with warfarin or ibuprofen (as site−markers) were performed by tryptophan fluorescence quenching experiments using a fixed concentration of the albumin and site markers (3 μM) in buffer (containing 15 mM trisodium citrate and 150 mM NaCl at pH 7.0). The fluorescence emission spectra were recorded in the presence of increasing amounts of the compounds as quenchers with an excitation wavelength of 295 nm. The Scatchard equation (equation S7) and plots were applied on the corrected albumin−fluorescence emission spectra to determine the albumin−binding constant of the compounds in the presence of warfarin or ibuprofen.

[2] = molecular target: T2, bovine serum albumin (BSA) (Bos taurus, UniProt P02769); test: as above; assay type: binding; settings: for preferential BSA-binding site: from comparison of K with and without site markers; for K(BSA, ibuprofen): in the presence of ibuprofen; for K(BSA, warfarin): in the presence of warfarin
T2 construct: purchased Sigma-Aldrich Co
Description: as §1, §2, §3, §4, §5

CT DNA = test: Interaction with CT DNA by UV-vis spectroscopy; assay type: binding, calf; settings: for percentage of the observed hyper-/hypochromism (ΔA/A0, %) / blue-/red-shift in λmax (Δλ, nm): upon addition of CT DNA; for DNA-binding constant Kb: Wolfe–Shimer equation
Description: UV-vis spectroscopy was employed to determine the interaction mode of the compounds (4′–NO2–fenH and its complexes 1–4) with DNA and calculate the DNA-binding constant (Kb). For this reason, the UV-vis spectra of the compounds (2 × 10^−5–10^−4 Μ) were recorded in the presence of incremental additions of CT DNA solution (Figure S4), and the changes (in absorbance and wavelength) of the initial bands were monitored. […] However, a definite conclusion cannot be reached from such spectroscopic data, but the interaction mode could be further corroborated by viscosity measurements.
The Kb values of the compounds were calculated with the Wolfe–Shimer equation (Equation (S1)) and the corresponding plots of [DNA]/(εA–εF) vs. [DNA] (Figure S5).
S3 Binding studies with CT DNA
In order to study the interaction of the compounds with DNA, the compound was initially dissolved in DMSO (1 mM). Mixing of such solutions with the aqueous buffer solutions of DNA used in the studies never exceeded 5% DMSO (v/v) in the final solution, which was needed due to low aqueous solubility of most compounds. In all experiments, the effect of DMSO on the data has been taken into consideration and the appropriate corrections have been performed. The interaction of the compound with CT DNA was monitored by UV−vis spectroscopy, and viscosity measurements, and via competitive studies with EB by fluorescence emission spectroscopy.
S3.1 Binding study with CT DNA by UV−vis spectroscopy
The interaction of the compound with CT DNA has been studied by UV−vis spectroscopy in order to investigate the possible binding mode to CT DNA and to calculate the DNA−binding constant (Kb). of the compounds Kb (in M−1) was determined with the Wolfe−Shimer equation (equation S1) and the plots [DNA]/(εA−εf) versus [DNA] using the UV−vis spectra of the compound (25–100 μM) recorded for a constant concentration with increasing amounts of CT DNA for diverse [compound]/[DNA] mixing ratios (= r).
According to the Wolfe−Shimer equation:
[DNA] = [DNA] + 1 (equation S1)
(εA−εf) (εb−εf) Kb(εb−εf) where [DNA] is the concentration of DNA in base pairs, εA = Aobsd/[compound], εf = the extinction coefficient for the free compound and εb = the extinction coefficient for the compound in the fully bound form. Kb is given by the ratio of slope to the y intercept in plots [DNA]/(εA−εf) versus [DNA]. […]

[3] = UV band at λmax 391–421 nm, + hyperchromism, − hypochromism
[4] = UV band at λmax 391–421 nm, + red-shift, − blue-shift

T2 sequence (P02769 25-607): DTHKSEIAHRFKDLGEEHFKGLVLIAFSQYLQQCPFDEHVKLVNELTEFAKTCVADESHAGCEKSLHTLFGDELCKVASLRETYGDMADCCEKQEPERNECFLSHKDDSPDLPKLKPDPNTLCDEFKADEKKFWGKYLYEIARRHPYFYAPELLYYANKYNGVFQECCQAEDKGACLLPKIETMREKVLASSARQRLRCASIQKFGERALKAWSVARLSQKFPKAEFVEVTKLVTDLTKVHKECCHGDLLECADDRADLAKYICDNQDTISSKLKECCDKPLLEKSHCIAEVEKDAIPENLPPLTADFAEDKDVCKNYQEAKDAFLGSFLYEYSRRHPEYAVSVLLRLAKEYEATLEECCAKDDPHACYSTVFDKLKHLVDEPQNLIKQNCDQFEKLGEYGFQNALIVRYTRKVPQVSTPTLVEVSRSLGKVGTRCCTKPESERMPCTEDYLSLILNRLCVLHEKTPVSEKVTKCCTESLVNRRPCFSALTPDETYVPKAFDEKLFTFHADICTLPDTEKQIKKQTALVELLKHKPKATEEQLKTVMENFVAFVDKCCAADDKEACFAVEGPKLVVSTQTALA
T1 sequence (P02768 25-609): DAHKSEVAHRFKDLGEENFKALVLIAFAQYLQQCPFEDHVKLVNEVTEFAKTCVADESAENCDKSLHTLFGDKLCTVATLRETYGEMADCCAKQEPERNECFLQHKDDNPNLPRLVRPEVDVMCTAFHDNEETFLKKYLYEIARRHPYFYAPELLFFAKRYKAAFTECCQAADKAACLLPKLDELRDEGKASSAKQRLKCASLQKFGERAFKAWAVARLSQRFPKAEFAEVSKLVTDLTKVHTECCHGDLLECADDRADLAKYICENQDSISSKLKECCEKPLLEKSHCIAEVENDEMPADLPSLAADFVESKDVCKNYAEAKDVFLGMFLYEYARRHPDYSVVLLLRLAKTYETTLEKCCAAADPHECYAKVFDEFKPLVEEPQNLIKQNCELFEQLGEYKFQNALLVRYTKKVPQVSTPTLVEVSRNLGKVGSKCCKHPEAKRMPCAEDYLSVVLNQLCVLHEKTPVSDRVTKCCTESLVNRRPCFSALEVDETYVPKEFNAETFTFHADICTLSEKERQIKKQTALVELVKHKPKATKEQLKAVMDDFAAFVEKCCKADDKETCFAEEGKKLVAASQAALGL

| Structure (SMILES) | %DPPH-scavenging ability (DPPH%), 30 min (DPPH radical scavenging) | %DPPH-scavenging ability (DPPH%), 60 min (DPPH radical scavenging) | K(HSA, ibuprofen) [1] | K(HSA, warfarin) [1] | preferential BSA-binding site [2] | K(BSA, ibuprofen) [2] | K(BSA, warfarin) [2] | percentage of the observed hyper-/hypochromism (ΔA/A0, %) (CT DNA; [3]) [%] | blue-/red-shift in λmax (Δλ, nm) (CT DNA; [4]) | DNA-binding constant Kb (CT DNA; listed as 4′–NO2–fenamic acid) [M⁻¹] | blue-/red-shift in λmax (Δλ, nm) (CT DNA; UV band at λmax 321 nm) [nm] | percentage of the observed hyper-/hypochromism (ΔA/A0, %) (CT DNA; UV band at λmax 321 nm) | DNA-binding constant Kb (CT DNA) [M⁻¹] |
| --- | --- | --- | --- | --- | --- | --- | --- | --- | --- | --- | --- | --- | --- |
| O=C(O)c1ccccc1Nc1ccc([N+](=O)[O-])cc1 [4′–NO2–fenH, 4′–nitrofenamic acid] | Not active | Not active | 2.91 (±0.06) × 10^5 M^−1 | 3.22 (±0.12) × 10^5 M^−1 | Sudlow’s site I | 2.70 (±0.11) × 10^5 M^−1 | 1.41 (±0.06) × 10^5 M^−1 | −12 | +20 nm | 1.62e+06 | – | – | – |
| CO.CO.CO.CO.O=C([O-])c1ccccc1Nc1ccc([N+](=O)[O-])cc1.O=C([O-])c1ccccc1Nc1ccc([N+](=O)[O-])cc1.[Co+2] [Complex 1, [Co(4′–NO2–fen)2(MeOH)4]] | Not active | Not active | 1.66 (±0.09) × 10^5 M^−1 | 1.99 (±0.11) × 10^5 M^−1 | Sudlow’s site I | 1.38 (±0.08) × 10^5 M^−1 | 1.06 (±0.04) × 10^5 M^−1 | −10 | 0 nm | – | – | – | – |
| O=C([O-])c1ccccc1Nc1ccc([N+](=O)[O-])cc1.O=C([O-])c1ccccc1Nc1ccc([N+](=O)[O-])cc1.[Co+2].c1ccc(Nc2ccccn2)nc1 [Complex 2, [Co(4′–NO2–fen)2(bipyam)]] | Not active | Not active | 2.02 (±0.03) × 10^5 M^−1 | 2.75 (±0.19) × 10^5 M^−1 | Sudlow’s site II | 1.42 (±0.09) × 10^5 M^−1 | 1.85 (±0.06) × 10^5 M^−1 | −10 | 0 nm | – | −0.5 | +4% | – |
| O=C([O-])c1ccccc1Nc1ccc([N+](=O)[O-])cc1.O=C([O-])c1ccccc1Nc1ccc([N+](=O)[O-])cc1.[Co+2].c1cnc2c(c1)ccc1cccnc12 [Complex 3, [Co(4′–NO2–fen)2(phen)]] | Not active | Not active | 5.23 (±0.17) × 10^4 M^−1 | 4.80 (±0.17) × 10^5 M^−1 | Sudlow’s site I | 1.95 (±0.03) × 10^5 M^−1 | 1.60 (±0.06) × 10^5 M^−1 | −2.5 | +0.5 nm | – | – | – | – |
| C[O-].C[O-].Cc1ccc2ccc3ccc(C)nc3c2n1.Cc1ccc2ccc3ccc(C)nc3c2n1.O=C([O-])c1ccccc1Nc1ccc([N+](=O)[O-])cc1.O=C([O-])c1ccccc1Nc1ccc([N+](=O)[O-])cc1.[Co+2].[Co+2] [Complex 4, [Co2(4′–NO2–fen)2(μ–CH3O)2(neoc)2]] | Not active | Not active | 3.04 (±0.15) × 10^5 M^−1 | 5.00 (±0.18) × 10^5 M^−1 | Sudlow’s site I | 3.60 (±0.14) × 10^5 M^−1 | 2.40 (±0.06) × 10^5 M^−1 | −3 | −4.5 nm | – | – | – | 2.06e+06 |
